From patent US20030087308A1, “Method for high through put screening using a small scale mill or microfluidics” (Elan Pharma International Limited, priority 2001, published 2003)
Like-named read-outs stand apart in the source and are kept apart here.

Columns and labels:
[1] = PVP K29/32 and SLS 5:2:0.05, 6000 rpm
Method: The mixture was milled in a NanoMill™ (Elan Drug Delivery, Inc.). Using a media load of 100% at the maximum rpm of 6000 maximized the energy input.
Further calculations were based on a bulk density of 0.61 g/ml for PolyMill™ 500 μ media (Dow Chemical) and a void volume of 40%. Since the amounts were low and mixing difficult, PVP and SLS were prepared as 20% and 5% stock solutions, respectively. The calculations for milling in a 10 mL, 18 mL, and 26 mL milling chambers are summarized in the following chart: […]

[2] = Particle size of nanoparticle suspension after small scale high energy milling (microscopy, laser light diffraction); assay type: physicochemical
[3] = Quality of milled dispersion by photomicrography; assay type: physicochemical
Method: Analysis of resultant particle size was via photomicrography.
[…] The composition was then milled in a 10 mL chamber of a NanoMill™.

[4] = 10 mL chamber, 25 mg naproxen, after 1 hr

Structure (SMILES)	mean particle size (bimodal peak) [1, 4]	median particle size (bimodal peak) [1, 4]	single peak mean particle size ([1]; 18 mL chamber, 45 mg naproxen)	single peak mean particle size ([1]; 26 mL chamber, 65 mg naproxen)	Particle Size ([2]; 50 mg milled, 15 min milling time)	Particle Size ([2]; 200 mg milled, 60 min milling time)	mean diameter of nanoparticle suspension ([2]; <50 mg of drug milled 15 min, small-volume high energy mill, unimodal distribution)	dispersion quality ([3]; 5 mg, 10 mL chamber, PVP K29/32 and SLS 5:2:0.05)	dispersion quality ([3]; 25 mg, 10 mL chamber, 15 min)	dispersion quality ([3]; 25 mg, 18 mL chamber, 15 min)	dispersion quality ([3]; 25 mg, 18 mL chamber, 30 min)	dispersion quality ([3]; 25 mg, 26 mL chamber, 5 min)	dispersion quality ([3]; 25 mg, 26 mL chamber, 15 min)	resultant particle size ([3]; 10 mg, Pluronic F-108 at 5:2, 10 mL chamber, 5 to 30 min)
COc1ccc2cc([C@H](C)C(=O)O)ccc2c1 [Naproxen]	1496 nm	354 nm	314 nm	630 nm	159 nm	147 nm	less than 200 nm	well dispersed nano-suspension	reasonable naproxen dispersion	reasonable naproxen dispersion	over-milled and aggregated	excellent homogeneity	clearly degenerating	–
CCOC(=O)CCCCCOC(=O)c1c(I)c(NC(C)=O)c(I)c(NC(C)=O)c1I [Photogen, 6-ethoxy-6-oxohexyl-3,5-bis(acetamido)-2,4,6-triiodobenzoate]	–	–	–	–	–	–	–	–	–	–	–	–	–	predominantly sub-micron
